According to article PMC6100250, “Efficient Intracellular Delivery of Cell-Impermeable Cargo Molecules by Peptides Containing Tryptophan and Histidine” (Molecules : A Journal of Synthetic Chemistry and Natural …, 2018):
Non-standard residues stand in square brackets, D forms with d. Residues, ends and D or L forms follow the SMILES beside them. *: point of attachment. 5FAM = O=C1OC2(c3ccc(O)cc3Oc3cc(O)ccc32)c2ccc(C(=O)*)cc21; pY = N[C@@H](Cc1ccc(OP(=O)(O)O)cc1)C(=O)O

Tests used:
SK-OV-3 cells [1] = assay: MTS cell viability (cytotoxicity) assay; conditions: peptide 10, 50 and 100 µM (up to 100 µM), 3 h incubation, 37 °C, read at 490 nm, triplicate
Method: (§1) To determine concentration of peptide to be used in in vitro assays, the cytotoxicity of peptides was evaluated in two cell lines, human ovarian (SK-OV-3) and leukemia (CCRF-CEM) cancer cells.
(§2) Human leukemia CCRF-CEM (ATCC # CCL-119) and ovarian carcinoma SK-OV-3 (ATCC # HTB-77) cell lines were purchased from the American Type Culture Collection. Cells were grown on 75 cm^2 cell culture flasks. The Roswell Park Memorial Institute (RPMI)-1640 medium was used for leukemia cells and McCoy’s 5A medium was used for SK-OV-3 cells. The medium was supplemented with 10% fetal bovine serum (FBS), 1% penicillin−streptomycin solution (10,000 units of penicillin, and 10 mg of streptomycin in 0.9% NaCl) in a humidified atmosphere of 5% CO2 at 37 °C. All bioassays were performed in triplicate.
(§3) The cytotoxicity assay was performed via an MTS proliferation assay in CCRF-CEM and SK-OV-3 cells. CCRF-CEM (40,000 cells) and SK-OV-3 (5000 cells) were incubated with 100 µL of complete media. The cells were seeded overnight in 96 well plates. […] The fluorescence intensity of the formazan product was measured at 490 nm using a Spectra Max M2 microplate spectrophotometer. The percentage of cell survival was calculated as [(OD value of cells treated with the test mixture of compounds) − (OD value of culture medium)]/[(OD value of control cells) − (OD value of culture medium)] × 100%.

CCRF-CEM cells = assay: MTS cell viability (cytotoxicity) assay; conditions: peptide 10, 50 and 100 µM (up to 100 µM), 3 h incubation, 37 °C, read at 490 nm, triplicate
Method: as §1, §2, §3

SK-OV-3 cells [2] = assay: Live cell fluorescence microscopy of F’-GpYEEI uptake; type: cell-based, human; conditions: F’-GpYEEI 5 µM alone, no carrier peptide, 3 h, FITC channel
Method: Fluorescence microscopy was used to confirm the intracellular uptake of F’-GpYEEI in the presence of cyclic [WH]5. The fluorescence intensity of F’-GpYEEI (5 µM) was visualized in a physical mixture with cyclic [WH]5 (50 µM) compared to that of F’-GpYEEI alone in SK-OV-3 cells. […] F’-GpYEEI alone was used as a control in this assay. Live cell imaging was carried using glass-bottom plates.
SK-OV-3 cells were grown with antibiotic-free DMEM 24 h prior to the experiment in a glass bottom petri-dish (60 mm × 15 mm) of 5000 cells per mL of media. The F’-GpYEEI was incubated with cyclic [WH]5 for 30 min at room temperature. Then, the cells were treated with a mixture of F’-GpYEEI (5 μM) and cyclic [WH]5 (50 μM) in Opti-MEM for 3 h at 37 °C. After 3 h, the medium containing the treatments was removed, and PBS was added to cells. The cells were washed with PBS for two times. Images were acquired with BZ-X710 fluorescence microscope (Keyence, Osaka, Japan) at 100× magnification for brightfield and FITC channels. Images were merged and processed using Image J software to visualize the fluorescence uptake by cells.

| Compound | cytotoxicity (cell survival, MTS) (SK-OV-3 cells [1]) | cytotoxicity (cell survival, MTS) (CCRF-CEM cells) | cellular uptake of F’-GpYEEI alone (fluorescence microscopy) (SK-OV-3 cells [2]) |
| --- | --- | --- | --- |
| O=C1N[C@@H](Cc2c[nH]c3ccccc23)C(=O)N[C@@H](Cc2c[nH]cn2)C(=O)N[C@@H](Cc2c[nH]c3ccccc23)C(=O)N[C@@H](Cc2c[nH]cn2)C(=O)N[C@@H](Cc2c[nH]c3ccccc23)C(=O)N[C@@H](Cc2c[nH]cn2)C(=O)N[C@@H](Cc2c[nH]c3ccccc23)C(=O)N[C@@H](Cc2c[nH]cn2)C(=O)N[C@@H](Cc2c[nH]c3ccccc23)C(=O)N[C@H]1Cc1c[nH]cn1 [cyclic [WH]5] (cyclo(HWHWHWHWHW)) | did not show significant toxicity | did not show significant toxicity | – |
| CC[C@H](C)[C@H](NC(=O)[C@H](CCC(=O)O)NC(=O)[C@H](CCC(=O)O)NC(=O)[C@H](Cc1ccc(OP(=O)(O)O)cc1)NC(=O)CNC(=O)c1ccc2c(c1)C(=O)OC21c2ccc(O)cc2Oc2cc(O)ccc21)C(=O)O [F’-GpYEEI] (5FAM-G[pY]EEI-OH) | – | – | No green fluorescence was observed |
